From US20070275100A1, “Use of gaseous nitric oxide as an anti-cancer agent” (priority 1998, published 2007) come the findings set out here.

Broadly, the viability is a per cent measure of how many cells are alive, often set against a control.

Data set [1] has as its system non-small cell lung cancer (NSCLC) cells lines. Kind of data set: MTS cell proliferation assay, 25,000 ppm gNO, NSCLC cell lines taken together (Examples 4 and 5). The format is cell-based, human. The source says: (§1) The purpose of this example is to illustrate the tumorcidal activity of high-dosage gNO. We examined the cellular sensitivity to 25,000 ppm of gNO on 5 non-small cell lung cancer (NSCLC) cells lines by an MTS cell proliferation assay.
Human lung cancer cell lines A549, NCI-H23, NCI-H460, HTB-58, H2170, and H441 (commercially available from American Type Culture Collection (“ATCC”), Manassas, Va.) were maintained in culture medium recommended by ATCC. All media were supplemented with 1% penicillin/streptomycin and 10% fetal bovine serum (commercially available from Invitrogen Gibco-BRL, Burlington, Ontario, Canada). All cell lines were incubated in a humidified incubator at 37° C. supplied with 5% carbon dioxide. The cell lines were tested regularly for the absence of Mycoplasma infections. The cells were routinely maintained in 25 cm tissue culture flasks (commercially available from BD Biosciences Discovery Labware, Oakville, Ontario, Canada) and were harvested by 0.25% trypsin (commercially available from Invitrogen-Gibco-BRL) treatment when they were in a logarithmic phase of growth for all experiments. […]
(§2) After 24 hours, the A549, NCI-H23, NCI-H460, HTB-58, H2170 and H441 cells were treated with 25,000 ppm gNO or air (control) for 1 minute, 3 minutes, 6 minutes, 9 minutes, 10 minutes, 20 minutes, and 30 minutes. Immediately following treatment, the viability of the cells was determined using a colorimetric MTS (3-(4,5-dimethylthiazol-2-yl)-5-(3-carboxymethoxyphenyl)-2-(4-sulfophenyl)-2H-tetrazolium, inner salt) cell proliferation assay (commercially available as the CellTiter 960 Aqueous One Solution Cell Proliferation Assay (MTS) from Promega, Madison, Wis., USA) according to the manufacturer's protocol. […] Absorbance was measured at 490 nm for each well using a micro-plate reader (commercially available from Dynex Technologies, Chantilly, Va., USA). The relative percentage of cell survival (viability) was calculated by dividing the absorbance of treated cells by that of control cells for each experimental time point. […]

Data set [2] deals with normal human endothelial lung vascular cells (NHVE). In words: Viability under 25,000 ppm gNO (Example 5), NHVE. The format is cell-based. How it is done:
(§3) After 24 hours, the A549, NCI-H23, NCI-H460, HTB-58, H2170 and H441 cells were treated with 25,000 ppm gNO or air (control) for 1 minute, 3 minutes, 6 minutes, 9 minutes, 10 minutes, 20 minutes, and 30 minutes. Immediately following treatment, the viability of the cells was determined using a colorimetric MTS (3-(4,5-dimethylthiazol-2-yl)-5-(3-carboxymethoxyphenyl)-2-(4-sulfophenyl)-2H-tetrazolium, inner salt) cell proliferation assay (commercially available as the CellTiter 960 Aqueous One Solution Cell Proliferation Assay (MTS) from Promega, Madison, Wis., USA) according to the manufacturer's protocol. Briefly, […] of MTS solution was added to each well and the cells were incubated for 2 hours at 37° C. Absorbance was measured at 490 nm for each well using a micro-plate reader (commercially available from Dynex Technologies, Chantilly, Va., USA). The relative percentage of cell survival (viability) was calculated by dividing the absorbance of treated cells by that of control cells for each experimental time point.
(§4) The purpose of this example is to illustrate the effects on normal human cell lines compared to the effects on cancerous cell lines of high-dosage gNO. The above study was repeated. […]

For data set [3], the system named is normal human fibroblast cells (NHLF). Kind of data set: Viability under 25,000 ppm gNO (Example 5), NHLF. In kind it is cell-based. How it is done: as §3, §4
In data set [4] the test system is NCI-H460. Kind of data set: MTS cell proliferation assay, 25,000 ppm gNO (Example 4), NCI-H460. The format is cell-based, human.
Text: as §1
(§5) Human lung cancer cell lines A549, NCI-H23, NCI-H460, HTB-58, H2170, and H441 (commercially available from American Type Culture Collection (“ATCC”), Manassas, Va.) were maintained in culture medium recommended by ATCC. All media were supplemented with 1% penicillin/streptomycin and 10% fetal bovine serum (commercially available from Invitrogen Gibco-BRL, Burlington, Ontario, Canada). […]
as §2, with “USA).” for “USA). The relative percentage of cell survival (viability) was calculated by dividing the absorbance of treated cells by that of control cells for each experimental time point.”
(Tetrazolium dyes change colour on reduction, which living cells bring about.)

Data set [5] deals with NCI-H23. Kind of data set: MTS cell proliferation assay, 25,000 ppm gNO (Example 4), NCI-H23. The format is cell-based, human.
Text: as §1, §5
as §2, with “USA).” for “USA). The relative percentage of cell survival (viability) was calculated by dividing the absorbance of treated cells by that of control cells for each experimental time point.”

Data set [6] relates to A549. In words: MTS cell proliferation assay, 25,000 ppm gNO (Example 4), A549. In kind it is cell-based, human.
Text: as §1, §5
as §2, with “USA).” for “USA). The relative percentage of cell survival (viability) was calculated by dividing the absorbance of treated cells by that of control cells for each experimental time point.”

The subject of data set [7] is extra cellular M. tuberculosis. Kind of data set: Exposure of extracellular M. tuberculosis to NO. The format is cell-based. Conditions: exogenous NO. The text has this:
Further, it may be inferred that the large population of extracellular bacilli in patients with cavitary pulmonary tuberculosis are also vulnerable to exogenous (inhaled) NO.

Data set [8] has as its system H460-epithelial metastatic; large cell lung cancer cells. In words: MTS proliferation assay, H460 cells under continuous gNO exposure (Example 1). In kind it is cell-based, human. The source says:
(gNO) 200 ppm and 350 ppm compared to air (control) on the survival of a representative line of cancer cells. […] […] The plates then were removed and cell viability assessed by an MTS proliferation assay.
When exposed to 350 ppm of gNO, however, cancer cell survival rates decrease dramatically.

The subject of data set [9] is H441. Kind of data set: MTS cell proliferation assay, 25,000 ppm gNO (Example 4), H441. The format is cell-based, human.
Text: as §1, §5
as §2, with “USA).” for “USA). The relative percentage of cell survival (viability) was calculated by dividing the absorbance of treated cells by that of control cells for each experimental time point.”

[10] abbreviates: 350 ppm NO, 2 hours, RPMI medium.
Where [11] appears, read: 350 ppm NO, 2 hours, RPMI medium, listed as NO.

Several values for one entry are separate records, joined by “and”; a condition that tells them apart may be missing. Identical values can stand only once.

As for `[N]=O` [gNO, nitric oxide], the viability at 25000 ppm in data set [1] (Homo sapiens, 0.15 h, at 9 minutes, read-out: viability, mean value of the other three NSCLC lines) was 10.7 ± 2.08%; in data set [5] (Homo sapiens, NCI-H23, 0.15 h, at 9 minutes), around 24%; in data set [9] (Homo sapiens, NCI-H441, 0.15 h, at 9 minutes), around 17%. Also, the “cells killed, all five cancer cell lines” value in data set [1] (between 6 and 9 minutes, Example 4) is listed as 75-95%; in data set [1] (between about 6 and about 9 minutes, repeat study, Example 5) it was 75-95%. In addition, in [2] (6 minutes), the “killing of normal endothelial cells” value is on record as “rapidly killed”. In addition, the viability result in data set [2] (after 6 minutes, FIG. 8 B) is “less than 10%”; in [3] (after 6 minutes, FIG. 8 C), “about 30%”. The “viability of normal lung fibroblasts” value in data set [3] (after 15 minutes of exposure) is recorded as 30%. Besides, the “IC50 (exposure time)” value in data set [4] is recorded as “about 7 minutes”; in data set [5], “about 6 minutes”; in data set [6] it was “about 3 minutes”; in [9] it was “about 7 minutes”. Moreover, the mycobacteriocidal action entry in data set [7] was “powerful dose-dependent and time-dependent mycobacteriocidal action”. Also, the Average in [8] (setting [10]) was 0.158. Also, the figures for the Survival result in data set [8] (setting [10]) and in [8] (setting [11]) were “about 0%” and 2%, respectively. For the same molecule, the “Corrected Average” value in data set [8] (350 ppm NO, 2 hours, RPMI medium, blank subtracted) turned out to be 0.037. Moreover, the “MTS assay reading, individual wells” value in data set [8] (setting [11]) is 0.193 and 0.147 and 0.152 and 0.154 (2×) and 0.156 and 0.172 and 0.157 and 0.149 (2×) and 0.165 and 0.155 and 0.158 and 0.145 and 0.184 and 0.143. In [8] (350 ppm gNO, 24 hours continuous exposure, compared to air (control)), this molecule returned a survivability of 2%.
